Measurements taken from patent US5688913A, “CS-1 peptidomimetics, compositions and methods of using the same” (Cytel Corporation, priority 1995, dated 1997).
Read-outs that look alike come from different tables or passages of the source. Numbered stars: 1 amine (or outer) side, 2 acyl side, 3 side chain; on linkers, the order of the positions; unused ones are H or OH. Square brackets hold non-standard residues; d marks the D form. Peptide text beside a SMILES is read from it. * marks the point of attachment. Quinoline3carbonyl = O=C(c1cnc2ccccc2c1)*; Benzenesulfonyl = O=S(=O)(c1ccccc1)*; Acetyl(3-pyridyl) = O=C(Cc1cccnc1)*; Pyrazinecarbonyl = O=C(c1cnccn1)*; Quinaldoyl = O=C(c1ccc2ccccc2n1)*; Brosyl = O=S(=O)(c1ccc(Br)cc1)*; X15 = O=S(=O)(c1cccc2cccnc12)*; Nicotinoyl = O=C(c1cccnc1)*; X19 = O=C(Cc1ccc(Br)cc1)*; Piperidide = C1CCN(*)CC1; Pyrrolidide = C1CCN(*)C1; Cbz = O=C(OCc1ccccc1)*; NHDecyl = CCCCCCCCCCN*; PhAc = O=C(Cc1ccccc1)*; X14 = O=C(c1cc[nH]n1)*; CO = O=C([*:1])[*:2]; Bz = O=C(c1ccccc1)*; NHPh = c1ccc(N*)cc1; NHBu = CCCCN*

Molecular target: VLA-4 (Homo sapiens, UniProt P05556+P13612)
Test: cell-based
Type: cell-based
Set-up: host or cells: Jurkat (human T lymphoblastic line)
Description: Binding inhibition is measured here as a concentration of peptide that inhibits one-half the binding between a standard number of Jurkat cells and a standard amount of CS-1 peptide bound to the surface of a microtiter plate well. Those concentrations are conveniently expressed as IC50 values, smaller numbers indicating a lower concentration required to inhibit 50 percent binding and therefore greater potency. Further specifics of this assay are provided hereinafter.
Jurkat cells (ATCC TIB 152), a human T lymphoblastic line, labeled with ^51 chromium were used to assay in vitro binding inhibition provided by various peptides discussed herein.
The plates were prepared as follows: The 25-mer CS-1 peptide (SEQ ID NO:1) dissolved at 0.5-1 μg/ml in a buffer of 0.1M NaHCO3 at pH 9.5 that also contained 10 μg/ml of bovine serum albumin (BSA) or a conjugate of the CS-1 peptide linked to ovalbumin (CS-1-OVA) dissolved at 1-2.5 μg/ml in the same buffer was used as the substrate. Each well of the microtiter plates was coated with 50 μl of substrate or buffer alone for controls. The wells were permitted to dry out completely and were then rinsed twice with PBS at pH 7.4. Non-specific binding sites of each well were then blocked using 200 μl per well of RPMI/1 percent BSA for two hours at room temperature. Both solid phase-affixed substrates provided similar results.
Jurkat cells (3-5×10^6 cells) were placed into a 15 ml Falcon™ round-bottom tube with a cap. The tube was centrifuged, and the extra medium was then removed.
Two hundred microliters of a ^51 Cr labeling solution were added to the centrifuged cells and maintained in contact with the cells for 90-120 minutes in a warm room. This procedure typically provides about 50,000-100,000 cpm/well with about 80-100 percent cell viability. Longer contact times provide a greater amount of labeling but lower cell viability.
The labeled cells are washed with (i) complete medium, (ii) 1 mM EDTA/PBS and then (iii) RPM1/1 percent BSA free of serum components. The cells are centrifuged after each washing. The cells are finally resuspended in serum-free RPMI/1 percent BSA at a concentration of 1×10^6 viable cells/ml, which provides a concentration that is diluted by one-half in the assay.
Inhibitor peptides are prepared as stock solutions at 20 mg/ml in DMSO in 1.5 ml cryogenic screwcap vials, and were stored at -70° C. Using Flow™ round-bottom or V-bottom microtiter plates, the inhibitor peptides were prepared at twice the assay concentration in RPMI/1 percent BSA at 60 μl well.
Four initial dilutions were typically used.
The ^51 Cr-labeled cells (1×10^6 cells at 60 μl/well) were then admixed with the diluted peptide solutions. The admixtures were maintained at room temperature (about 22° C.) for 30 minutes.
One hundred microliters of each inhibitor peptide/cell admixture were transferred to the substrate-coated wells. This was done in triplicate for each dilution. The resulting plates were incubated for 30 minutes at 37° C. and then washed gently three times with RPMI/1 percent BSA at 200 μl/well. Binding was observed microscopically, particularly after the second wash.
The bound cells were then lysed by the addition of a 0.5 percent solution of sodium dodecylsulfate in water at 100 μ/l well. The resulting solutions were then processed for counting and calculation of IC50 values following usual procedures. Appropriate positive and negative controls were used with each plate so that the results of separate assays could be normalized and compared.
The data of Table 1 are so normalized.

[1] = normalized IC50 relative to standard peptide of SEQ ID NO:3 (=1), about one-tenth or less of the standard is assigned zero

Sequence of VLA-4 (P13612 34-1032): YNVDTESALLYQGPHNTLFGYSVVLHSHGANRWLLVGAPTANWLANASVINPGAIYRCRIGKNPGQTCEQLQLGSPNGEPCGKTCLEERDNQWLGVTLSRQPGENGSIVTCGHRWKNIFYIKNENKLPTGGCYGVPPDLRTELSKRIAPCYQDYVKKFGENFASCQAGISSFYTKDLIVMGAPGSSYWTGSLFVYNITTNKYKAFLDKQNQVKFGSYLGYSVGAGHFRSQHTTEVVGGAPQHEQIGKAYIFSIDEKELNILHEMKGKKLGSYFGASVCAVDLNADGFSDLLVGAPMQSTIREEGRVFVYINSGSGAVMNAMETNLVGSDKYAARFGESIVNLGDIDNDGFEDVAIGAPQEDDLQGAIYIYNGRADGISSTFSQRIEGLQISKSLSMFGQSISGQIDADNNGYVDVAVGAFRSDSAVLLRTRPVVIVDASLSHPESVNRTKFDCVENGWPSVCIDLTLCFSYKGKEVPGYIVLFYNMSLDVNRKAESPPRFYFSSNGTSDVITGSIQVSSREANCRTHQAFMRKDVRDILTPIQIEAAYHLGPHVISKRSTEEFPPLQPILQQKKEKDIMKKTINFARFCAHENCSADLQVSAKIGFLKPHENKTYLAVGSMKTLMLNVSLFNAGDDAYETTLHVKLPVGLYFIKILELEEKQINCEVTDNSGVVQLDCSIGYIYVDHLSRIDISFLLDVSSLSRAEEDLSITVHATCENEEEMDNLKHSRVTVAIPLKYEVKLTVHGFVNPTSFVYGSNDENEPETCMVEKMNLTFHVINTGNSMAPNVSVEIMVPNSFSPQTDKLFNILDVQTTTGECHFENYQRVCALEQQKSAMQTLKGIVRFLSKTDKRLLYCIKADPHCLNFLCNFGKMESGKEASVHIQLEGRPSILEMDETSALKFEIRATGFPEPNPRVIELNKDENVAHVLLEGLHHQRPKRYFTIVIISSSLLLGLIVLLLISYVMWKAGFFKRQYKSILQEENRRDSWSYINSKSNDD
Sequence of VLA-4 (P05556 21-798): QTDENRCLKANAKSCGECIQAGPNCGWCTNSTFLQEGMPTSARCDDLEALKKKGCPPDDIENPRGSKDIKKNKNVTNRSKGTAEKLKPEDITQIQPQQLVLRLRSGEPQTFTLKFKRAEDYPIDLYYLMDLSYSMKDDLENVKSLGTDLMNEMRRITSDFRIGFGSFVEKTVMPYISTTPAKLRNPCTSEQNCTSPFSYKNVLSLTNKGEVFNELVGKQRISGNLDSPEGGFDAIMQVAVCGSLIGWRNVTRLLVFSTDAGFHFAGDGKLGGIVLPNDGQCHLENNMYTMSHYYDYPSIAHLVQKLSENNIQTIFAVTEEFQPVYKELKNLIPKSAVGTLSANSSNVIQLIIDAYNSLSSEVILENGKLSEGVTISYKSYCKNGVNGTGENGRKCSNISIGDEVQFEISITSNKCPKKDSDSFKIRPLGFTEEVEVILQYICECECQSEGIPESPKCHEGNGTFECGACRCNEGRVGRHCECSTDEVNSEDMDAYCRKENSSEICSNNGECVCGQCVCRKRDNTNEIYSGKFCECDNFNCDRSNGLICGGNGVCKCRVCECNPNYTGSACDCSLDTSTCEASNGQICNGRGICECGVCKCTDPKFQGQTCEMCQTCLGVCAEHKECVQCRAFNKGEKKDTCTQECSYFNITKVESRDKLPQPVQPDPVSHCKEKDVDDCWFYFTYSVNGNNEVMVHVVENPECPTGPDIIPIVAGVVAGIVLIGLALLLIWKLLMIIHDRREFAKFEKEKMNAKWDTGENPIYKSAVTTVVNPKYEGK

CC[C@H](C)[C@H](N)C(=O)N[C@@H](CC(C)C)C(=O)N[C@@H](CC(=O)O)C(=O)N[C@H](C(=O)N1CCC[C@H]1C(=O)N[C@H](C(=O)N[C@@H](CC(C)C)C(=O)N[C@@H](CC(=O)O)C(=O)N[C@H](C(=O)N1CCC[C@H]1C(N)=O)C(C)C)[C@@H](C)CC)C(C)C [I L D V P I L D V P free amine amide] (H-ILDVPILDVP-NH2)
RELATIVE POTENCY (relative peptide inhibition of VLA-4 binding CS-1): 2

CC[C@H](C)[C@H](N)C(=O)N[C@@H](CC(C)C)C(=O)N[C@@H](CC(=O)O)C(=O)N[C@H](C(=O)N1CCC[C@H]1C(=O)O)C(C)C [I L D V P free amine free acid, reference compound] (H-ILDVP-OH)
RELATIVE POTENCY (relative peptide inhibition of VLA-4 binding CS-1): 1

CC(C)C[C@H](N)C(=O)N[C@@H](CC(=O)O)C(=O)N[C@@H](Cc1ccccc1)C(=O)N1CCCCC1 [L D F Z free amine piperidinamide] (H-Leu-Asp-Phe-Piperidide)
RELATIVE POTENCY (relative peptide inhibition of VLA-4 binding CS-1): 0

CC(=O)N[C@@H](CC(C)C)C(=O)N[C@@H](CC(=O)O)C(=O)N[C@@H](Cc1ccccc1)C(N)=O [L D F acetyl amide] (Ac-Leu-Asp-Phe-NH2)
RELATIVE POTENCY (relative peptide inhibition of VLA-4 binding CS-1): < 1

CC(C)C[C@H](N)C(=O)N[C@@H](CC(=O)O)C(=O)N[C@@H](Cc1ccccc1)C(N)=O [L D F free amine amide] (H-Leu-Asp-Phe-NH2)
RELATIVE POTENCY (relative peptide inhibition of VLA-4 binding CS-1): 0

CC(=O)N[C@@H](CC(C)C)C(=O)N[C@@H](CC(=O)O)C(=O)N[C@H](C(N)=O)C(C)C [L D V acetyl amide, reference compound] (Ac-Leu-Asp-Val-NH2)
RELATIVE POTENCY (relative peptide inhibition of VLA-4 binding CS-1): 1

CC(C)C[C@H](N)C(=O)N[C@@H](CC(=O)O)C(=O)N[C@H](C(N)=O)C(C)C [L D V free amine amide, reference compound] (H-Leu-Asp-Val-NH2)
RELATIVE POTENCY (relative peptide inhibition of VLA-4 binding CS-1): 0
RELATIVE POTENCY (relative peptide inhibition of VLA-4 binding CS-1) (normalized IC50 relative to standard peptide of SEQ ID NO:3 (=1), about one-tenth or less of the standard is assigned zero, listed as Leu-Asp-Val (LDV) N-free amine C-amide): zero

CC(=O)N[C@@H](CO)C(=O)N[C@@H](Cc1ccccc1)C(=O)N[C@@H](CC(=O)O)C(=O)N[C@@H](Cc1ccccc1)C(=O)N[C@@H](CO)C(N)=O [S F D F S acetyl amide] (Ac-SFDFS-NH2)
RELATIVE POTENCY (relative peptide inhibition of VLA-4 binding CS-1): < 1

CC(C)C[C@H](NC(=O)[C@H](CC(=O)O)NC(=O)Cc1ccccc1)C(=O)N[C@@H](Cc1ccccc1)C(=O)N1CCC[C@@H]1C(N)=O [X D L F p phenylacetyl amide, N-phenylacetyl-Asp-Leu-Phe-D-Pro-NH2, reference compound] (PhAc-DLF[dP]-NH2)
RELATIVE POTENCY (relative peptide inhibition of VLA-4 binding CS-1) [1]: < 1

CCCCCCCCCCNC(=O)[C@@H]1CCCN1C(=O)[C@H](Cc1ccccc1)NC(=O)[C@H](CC(=O)O)NC(=O)[C@H](CC(C)C)NC(=O)Cc1ccccc1 [X L D F P Z phenylacetyl decylamide] (PhAc-LDFP-NHDecyl)
RELATIVE POTENCY (relative peptide inhibition of VLA-4 binding CS-1) [1]: 2

CC(C)C[C@H](NCc1ccccc1)C(=O)N[C@@H](CC(=O)O)C(=O)N[C@@H](Cc1ccccc1)C(=O)N1CCCCC1 [X L D F Z benzyl piperidinamide]
RELATIVE POTENCY (relative peptide inhibition of VLA-4 binding CS-1): 6

CCCCNC(=O)[C@H](Cc1ccccc1)NC(=O)[C@H](CC(=O)O)NC(=O)[C@H](CC(C)C)NC(=O)Cc1ccccc1 [X L D F Z phenylacetyl n-butylamide] (PhAc-Leu-Asp-Phe-NHBu)
RELATIVE POTENCY (relative peptide inhibition of VLA-4 binding CS-1) [1]: 3

CC(C)C[C@H](NC(=O)Cc1ccccc1)C(=O)N[C@@H](CC(=O)O)C(=O)N[C@@H](Cc1ccccc1)C(=O)N1CCNCC1 [X L D F Z phenylacetyl piperazinamide]
RELATIVE POTENCY (relative peptide inhibition of VLA-4 binding CS-1) [1]: 506

CC(C)C[C@H](NC(=O)Cc1ccccc1)C(=O)N[C@@H](CC(=O)O)C(=O)N[C@@H](Cc1ccccc1)C(=O)N1CCCC1 [X L D F Z phenylacetyl pyrrolidinamide] (PhAc-Leu-Asp-Phe-Pyrrolidide)
RELATIVE POTENCY (relative peptide inhibition of VLA-4 binding CS-1) [1]: 250

CC(C)C[C@H](NC(=O)c1cnccn1)C(=O)N[C@@H](CC(=O)O)C(=O)N[C@@H](Cc1ccccc1)C(=O)N1CCC[C@@H]1C(N)=O [X L D F p 2-pyrazinecarbonyl amide] (Pyrazinecarbonyl-LDF[dP]-NH2)
RELATIVE POTENCY (relative peptide inhibition of VLA-4 binding CS-1): 9

CC(C)C[C@H](NC(=O)c1ccc2ccccc2n1)C(=O)N[C@@H](CC(=O)O)C(=O)N[C@@H](Cc1ccccc1)C(=O)N1CCC[C@@H]1C(N)=O [X L D F p 2-quinolinecarbonyl amide] (Quinaldoyl-LDF[dP]-NH2)
RELATIVE POTENCY (relative peptide inhibition of VLA-4 binding CS-1): 4

CC(C)C[C@H](NC(=O)c1cnc2ccccc2c1)C(=O)N[C@@H](CC(=O)O)C(=O)N[C@@H](Cc1ccccc1)C(=O)N1CCC[C@@H]1C(N)=O [X L D F p 3-quinolinecarbonyl amide] (Quinoline3carbonyl-LDF[dP]-NH2)
RELATIVE POTENCY (relative peptide inhibition of VLA-4 binding CS-1): 56

CC(C)C[C@H](NS(=O)(=O)c1ccc(Br)cc1)C(=O)N[C@@H](CC(=O)O)C(=O)N[C@@H](Cc1ccccc1)C(=O)N1CCC[C@@H]1C(N)=O [X L D F p 4-bromophenylsulfonyl amide] (Brosyl-LDF[dP]-NH2)
RELATIVE POTENCY (relative peptide inhibition of VLA-4 binding CS-1): < 1

CC(C)C[C@H](NS(=O)(=O)c1cccc2cccnc12)C(=O)N[C@@H](CC(=O)O)C(=O)N[C@@H](Cc1ccccc1)C(=O)N1CCC[C@@H]1C(N)=O [X L D F p 8-quinolinesulfonyl amide] (X15-LDF[dP]-NH2)
RELATIVE POTENCY (relative peptide inhibition of VLA-4 binding CS-1): 3

CC(C)C[C@H](NC(=O)Nc1ccccc1)C(=O)N[C@@H](CC(=O)O)C(=O)N[C@@H](Cc1ccccc1)C(=O)N1CCC[C@@H]1C(N)=O [X L D F p anilinocarbonyl amide] ({NHPh-CO}-LDF[dP]-NH2)
RELATIVE POTENCY (relative peptide inhibition of VLA-4 binding CS-1): 227

CC(C)C[C@H](NC(=O)c1ccccc1)C(=O)N[C@@H](CC(=O)O)C(=O)N[C@@H](Cc1ccccc1)C(=O)N1CCC[C@@H]1C(N)=O [X L D F p benzoyl amide] (Bz-LDF[dP]-NH2)
RELATIVE POTENCY (relative peptide inhibition of VLA-4 binding CS-1) [1]: 75

CC(C)C[C@H](NC(=O)OCc1ccccc1)C(=O)N[C@@H](CC(=O)O)C(=O)N[C@@H](Cc1ccccc1)C(=O)N1CCC[C@@H]1C(N)=O [X L D F p benzyloxycarbonyl amide] (Cbz-LDF[dP]-NH2)
RELATIVE POTENCY (relative peptide inhibition of VLA-4 binding CS-1): 34

CC(C)C[C@H](NC(=O)Cc1ccc(Br)cc1)C(=O)N[C@@H](CC(=O)O)C(=O)N[C@@H](Cc1ccccc1)C(=O)N1CCC[C@@H]1C(N)=O [X L D F p p-bromophenylacetyl amide] (X19-LDF[dP]-NH2)
RELATIVE POTENCY (relative peptide inhibition of VLA-4 binding CS-1): 3

CC(C)C[C@H](NS(=O)(=O)c1ccccc1)C(=O)N[C@@H](CC(=O)O)C(=O)N[C@@H](Cc1ccccc1)C(=O)N1CCC[C@@H]1C(N)=O [X L D F p phenylsulfonyl amide] (Benzenesulfonyl-LDF[dP]-NH2)
RELATIVE POTENCY (relative peptide inhibition of VLA-4 binding CS-1): 0

CC(C)C[C@H](NC(=O)c1cc[nH]n1)C(=O)N[C@@H](CC(=O)O)C(=O)N[C@@H](Cc1ccccc1)C(=O)N1CCC[C@@H]1C(N)=O [X L D F p pyrazolecarbonyl amide] (X14-LDF[dP]-NH2; N-terminus assumed)
RELATIVE POTENCY (relative peptide inhibition of VLA-4 binding CS-1): 35

CC(C)C[C@H](NC(=O)Cc1cccnc1)C(=O)N[C@@H](CC(=O)O)C(=O)N[C@@H](Cc1ccccc1)C(=O)N1CCC[C@@H]1C(N)=O [X L D F p pyridine-3-acetyl amide] ({Acetyl(3-pyridyl)}-LDF[dP]-NH2)
RELATIVE POTENCY (relative peptide inhibition of VLA-4 binding CS-1): 469

CC(C)C[C@H](NC(=O)c1cccnc1)C(=O)N[C@@H](CC(=O)O)C(=O)N[C@@H](Cc1ccccc1)C(=O)N1CCC[C@@H]1C(N)=O [X L D F p pyridine-3-carbonyl amide] (Nicotinoyl-LDF[dP]-NH2)
RELATIVE POTENCY (relative peptide inhibition of VLA-4 binding CS-1): 201
